The subject of one data set is T1, UdhOg.
T1 construct: gene udh; N-terminal His-tag, tag kept; wild-type gene from genomic DNA, E. coli BL21(DE3); start MKKIVLT (from primer)
The data set can be described thus: NADH formation at […] nm. It counts as biochemical, Oceanicola granulosus.

The test system of another data set is T2, UdhFp.
T2 construct: gene udh; N-terminal His-tag, tag kept; synthetic codon-optimized gene, E. coli BL21(DE3); start MLEKLLI (from primer)
Kind of data set: NADH formation at […] nm. It counts as biochemical, Fulvimarina pelagi.

Substrate in data set [1]: NC(=O)c1ccc[n+]([C@@H]2O[C@H](COP(=O)(O)OP(=O)(O)OC[C@H]3O[C@@H](n4cnc5c(N)ncnc54)[C@H](O)[C@@H]3O)[C@@H](O)[C@H]2O)c1
The data set can be described thus: purified protein. The settings on record: 50 mM potassium phosphate pH 8.0, 37°C, uronic acid co-substrate, varied: cofactor. The format is biochemical, Pseudomonas syringae group genomosp. 3.

Substrate in data set [2]: NC(=O)c1ccc[n+]([C@@H]2O[C@H](COP(=O)(O)OP(=O)(O)OC[C@H]3O[C@@H](n4cnc5c(N)ncnc54)[C@H](O)[C@@H]3O)[C@@H](O)[C@H]2O)c1
Kind of data set: purified protein. It counts as biochemical, Agrobacterium fabrum. The conditions noted are these: 50 mM potassium phosphate pH 8.0, 37°C, uronic acid co-substrate, varied: cofactor.

The mark [3] stands for this setting: 50 mM potassium phosphate pH 8.0, 37°C, uronic acid co-substrate, read-out: KPi-Buffer / Kinetic parameters / Km.
Where [4] appears, read: 50 mM Tris-HCl pH 8.0, 37°C, co-substrate NAD+, read-out: Tris-Buffer / Kinetic parameters / Km.

Read-outs that look alike come from different tables or passages of the source.

Turning to `NC(=O)c1ccc[n+]([C@@H]2O[C@H](COP(=O)(O)OP(=O)(O)OC[C@H]3O[C@@H](n4cnc5c(N)ncnc54)[C@H](O)[C@@H]3O)[C@@H](O)[C@H]2O)c1` [NAD^+], the figures for the Km with UdhOg (setting [3]) and with UdhFp (setting [3]) were 0.4 ± 0.1 mM and 200 ± 20 µM, respectively.
For `O=C(O)[C@H]1OC(O)[C@H](O)[C@@H](O)[C@H]1O` (stereo partly shown) [Galacturonate], the Km amounted to 55 ± 3 mM in the data set with UdhOg (setting [4]) and 20 µM in the data set with UdhFp (setting [4]).
`O=C(O)[C@H]1OC(O)[C@@H](O)[C@@H](O)[C@@H]1O` (stereo partly shown) [Mannuronate]: the Km with UdhFp (setting [4]) stood at 6400 ± 130 µM.
Regarding `O=C(O)[C@H]1OC(O)[C@H](O)[C@@H](O)[C@@H]1O` (stereo partly shown) [Glucuronate], the Km with UdhOg (setting [4]) is 64 ± 3 mM; in the data set on UdhFp (setting [4]), 200 ± 30 µM.

B1: UdhPs (Pseudomonas syringae pv. tomato str. DC3000) (protein)
chain: MASAHTTQTPFNRLLLTGAAGGLGKVLRETLRPYSHILRLSDIAEMAPAVGDHEEVQVCDLADKDAVHRLVEGVDAILHFGGVSVERPFEEILGANICGVFHIYEAARRHGVKRVIFASSNHVIGFYKQNETIDAHSPRRPDSYYGLSKSYGEDMASFYFDRYGIETVSIRIGSSFPEPQNRRMMSTWLSFDDLTRLLERALYTPDVGHTVVYGVSDNKTVWWDNRFASKLDYAPKDSSEVFRAKVDAQPMPADDDPAMVYQGGAFVASGPFGDK
notes: N-terminal His-tag, tag kept; synthetic codon-optimized gene, E. coli BL21(DE3)
A word on the kcat: it is the maximal rate divided by the concentration of active sites. In general, kcat/Km refers to the second-order rate constant that governs catalysis at low substrate concentration. As for B1, in “purified protein [1]”, the Km stood at 0.20 ± 0.03 mM, the turnover number (kcat) was determined as 215 ± 12 s⁻¹ and the kcat/Km was found to be 1.26e+06 M⁻¹ s⁻¹.

B2: UdhAt (Agrobacterium fabrum str. C58) (protein)
chain: MKRLLVTGAAGQLGRVMRERLAPMAEILRLADLSPLDPAGPNEECVQCDLADANAVNAMVAGCDGIVHLGGISVEKPFEQILQGNIIGLYNLYEAARAHGQPRIVFASSNHTIGYYPQTERLGPDVPARPDGLYGVSKCFGENLARMYFDKFGQETALVRIGSCTPEPNNYRMLSTWFSHDDFVSLIEAVFRAPVLGCPVVWGASANDAGWWDNSHLGFLGWKPKDNAEAFRRHITETTPPPDPNDALVRFQGGTFVDNPIFKQS
notes: as for B1
Take B2: in the data set “purified protein [2]”, the Km is recorded as 0.1 ± 0.0 mM, the kcat worked out at 144 ± 14 s⁻¹ and the specificity constant (kcat/Km) worked out at 1.08e+06 M⁻¹ s⁻¹.

The values above are taken from article PMC4476818, “Characterization of uronate dehydrogenases catalysing the initial step in an oxidative pathway” (Microbial Biotechnology, 2015).
